Like-named read-outs stand apart in the source and are kept apart here.
How the values were obtained:
restenosis = conditions: patients; limiting toxicity; cited from earlier work
[1] = Colchicine blood/plasma level in humans; assay type: in vivo; conditions: 1 mg/day human; read-out: Peak plasma concentration
Procedure: (§1) Bochner et al., Handbook of Clinical Pharmacology, Little, Brown and Co., Boston (1983), pp. 151-152. […] Thus, the concentration of colchicine in rabbits shown to prevent restenosis was 14 times the concentration achieved in the clinical trial. The compounds of invention can be prepared in the above-described compatible binding media up to 100 μM, i.e., 1400 times the concentration shown to be effective in the animal study, and delivered directly to the arterial wall by catheter during an angioplasty procedure.

A10 cells = assay: Antiproliferative activity on A10 cells after one 10 minute application; assay type: cell-based, rat; conditions: for Cell count: 10 minute application; for activity at 10 µM: Rattus norvegicus, read-out: % of Vehicle Maximum
Procedure: To determine the antiproliferative action of the compounds of invention, in vitro studies were performed using A10 cells, a clonal cell line originally derived from the thoracic aorta of embryonic rats, that proliferate as myoblasts and develop into cells which phenotypically resemble smooth muscle cells (B. Kimes and B. Brandt, Exptl. Cell Res. 98:349 (1976). Typically, twelve-well plates were seeded with 2500-10,000 A10 cells/cm^2 in Dulbecco's Modified Eagles Medium (DMEM) with 10% fetal calf serum (FCS) and allowed to adhere and stabilize for 24 hours at 37° C. Test substances were then prepared in the required concentrations in appropriate cell binding media and, after aspirating the plating medium, applied to the individual wells at 37° C. for a period of only 10 minutes. The treatments were then aspirated, the wells washed 4 times with non-treatment containing medium and then placed in non-treatment containing DMEM with 10% FCS for the duration of the study. At various times after treatment application, triplicate wells were aspirated, the aspirate saved, and the wells treated with 0.25 ml of 0.25% trypsin to release the adherent cells. The enzymatic action of trypsin on the cells was stopped by addition of excess protein (1.75 ml DMEM+10% FCS), the aspirate returned to the wells, and an aliquot of the resultant cell suspension counted in a Coulter Counter (Model ZM with Sampling Stand II). Cell count was normalized to cells per square centimeter of growing area (surface area of well bottom).

[2] = Colchicine plasma concentration in rabbits (estimated); assay type: in vivo; conditions: rabbit 0.2 mg/kg/day vs human 1 mg/day
Procedure: as §1

[3] = 1 mg/day human; cited from earlier work
membrane ghosts = assay: Membrane binding stability (MBS) assay in membrane ghosts with 5% albumin; conditions: 24 hours; for MBS (% of max.): Table II; for MBS: Table III
Text: Determination of Membrane Binding Stability
For example, very stable binding to membranes might be required for applications such as delivery of therapeutic radionuclides to tumor sites, as loss of compound could lead to the radionuclide producing its toxic effect at non-tumor sites. On the other hand, more rapid loss of compound from biomembranes may be desirable for application involving controlled delivery rates of therapeutic agents. Accordingly, there is described hereinbelow an assay for determining MBS under conditions approximating those found in vivo.
In carrying out this assay, approximately physiological concentrations of serum albumin (5%) are used. […] To better approximate the effects of large fluid volumes to which labelled cells are exposed in vivo, the assay for MBS is carried out by suspending a decreasing number of labeled membrane ghosts in a fixed volume of albumin-containing saline. At 24 hours, the total amount of label present is determined by sampling the well mixed suspension; subsequently, the membrane ghosts are pelleted by centrifugation and the amount of label released into the supernatant is determined and expressed as a percent of total label. Percent retention is plotted against number of ghosts per ml. of suspension, and MBS is determined as the area under the curve between 5×10^7 ghosts/ml. and 4×10^8 ghosts/ml.

[4] = test system: red blood cell ghosts (plasma membrane); assay: Membrane retention coefficient (MRC) in red blood cell ghosts; assay type: binding; conditions: 24 hr; Table II
Procedure: Determination of Membrane Retention Coefficient
The membrane retention coefficient (MRC) provides information regarding how well a given compound is retained in the plasma membrane of a cell and is determined as described below.
Generation of red blood cell ghosts for use as a model membrane is achieved by centrifuging whole blood at 300×g for 15 minutes, removal of the plasma and resuspension of the cell pellet in 0.83% (w/v) ammonium chloride. The ghosts are pelleted from the ammonium chloride by centrifuging at 10,000×g for 10 minutes. This ammonium chloride washing procedure is repeated a minimum of five times to insure that complete release of hemoglobin from the cells has occured. The ghosts are labeled with the compound in question at a concentration allowing for detection of the labeled ghosts by instrumental analysis or fluorescent microscopic methods, and at a concentration similar to those that would be used to label cells for a specific application as described above. For the determinations hereinbelow stock solutions of the compounds in question were prepared in ethanol at a molar concentration of 2×10^-3, and working dilutions of the compounds were prepared in iso-osmotic sucrose (52 g/500 ml distilled water). After incubation of the ghosts at an approximate concentration of 1×10^9 ghosts/ml in the working dilutions of the compounds for 10 minutes, the samples were centrifuged at 10,000×g to pellet the ghosts and the staining solution was aspirated from the samples. The labeled ghosts were resuspended in 1 ml of phosphate buffered saline solution containing 10% fetal bovine serum (PBS-FBS). Triplicate 20 ul aliquots were removed from each sample for the determination of the amount of total compound present. The samples were centrifuged as described above and triplicate 20 ul aliquots were removed from the supernatant for quantitative determination of amount of unbound compound present.
After sampling, the supernatant was aspirated and the red cell ghost pellet was resuspended in 1.0 ml of the PBS-FBS, which was once again sampled as described above. This procedure was repeated at least six times, allowing for detection of rapidly released compounds and was monitored after times equal to or greater than 24 hours to allow for the detection of more slowly released compounds. For the determination of the amount of compound present in each sample, the 20 ul aliquots were extracted into 3.0 ml of n-butanol by shaking. The samples were centrifuged at 3000×g to remove membrane debris and the butanol fractions were assayed for compound concentration. Fluorescent compounds are assayed in this manner using peak excitation and emission wave lengths for the particular compounds being assayed to determine the fluorescence units for each sample.
The determination of the amount of compound present in each sample as described above allows for the calculation of the MRC for each washing or fixed time point. The value is obtained by the following formula: […]
wherein CT represents the amount of compound present (in units determined by the method used to assay the compound) in the total sample and CS represents the amount of compound present in the supernatant sample for that particular time point. The comparison of the MRC values defines criteria for identification of the compounds of this invention, these criteria being: 1) the MRC values determined for each washing steps should have a value of at least about 90 and 2) the percent difference between MRC values over at least a 24 hour time period should be less than about 10%. [drawing 14]
The data provided in Table I below are the results from one experiment and serve as an example of the MRC determination. […]

[5] = In vivo loss of dye from labeled, reinjected erythrocytes; conditions: rabbit, iv
Text: (§2) *Half life for loss of dye from rabbit erythrocytes after labeling and

rabbit erythrocytes = conditions: iv
Text: as §2

In the case of `COc1cc2c(c(OC)c1OC)-c1ccc(OC)c(=O)cc1[C@@H](NC(C)=O)CC2` [Colchicine, colchicine], the Maximum tolerated dose (restenosis) is given as ≤ 1 mg/day, the Cmax [1] is given as 5 nM and the Cell count (A10 cells; 10 μM, day 0) is given as 3006.53 cells per square centimeter. The Cell count (A10 cells; 10 μM, day 1) was 3778.07 cells per square centimeter, the Cell count (A10 cells; 10 μM, day 2) was 4249.35 cells per square centimeter and the Cell count (A10 cells; 10 μM, day 3) was 7785.90 cells per square centimeter. The Cell count (A10 cells; 10 μM, day 6) was 57626.63 cells per square centimeter, the Cell count (A10 cells; 10 μM, day 7) was 118127.94 cells per square centimeter and the “% of Vehicle Maximum” value (A10 cells; 10 μM, day 0, 0 min) was 1.44%. The activity at 10 µM (A10 cells; A10, 24 h, 10 μM, day 1) was 1.81%, the activity at 10 µM (A10 cells; A10, 48 h, 10 μM, day 2) was 2.04% and the activity at 10 µM (A10 cells; A10, 72 h, 10 μM, day 3) was 3.73%. The activity at 10 µM (A10 cells; A10, 144 h, 10 μM, day 6) was 27.6%, the activity at 10 µM (A10 cells; A10, 168 h, 10 μM, day 7) was 56.6% and the “Cell density relative to vehicle-treated cells” value (A10 cells; day 7) was “only one-half the cell density of vehicle-treated cells”. For the same compound, the “Increase in cell number over that with the colchicine conjugate” value (A10 cells; day 7) was “approximately 10 fold”, the “Colchicine concentration in rabbits vs clinical trial” value [2] was 14 times and the Peak plasma concentration [3] was 2 ng/mL.

With `CCCCCCCCCCCCCCN1C(=CC=CC2=[N+](CCCCCCCCCCCCCC)c3ccccc3C2(C)C)C(C)(C)c2ccccc21` [R] the “MBS (% of max.)” value (membrane ghosts) was 55 ± 1.7 % of max, the MBS (membrane ghosts) was 55 ± 1.6% and the “MRC# (at 24 hr.)” value [4] was 87 ± 0.6. The half-life [5] was 36 days.

With `CCCCCCCCCCCC[N+]1=C(C=CC=C2N(CCCCCCCCCC)c3ccccc3C2(C)C)C(C)(C)c2ccccc21` [Compound 0] the “MBS (% of max.)” value (membrane ghosts) was 19 ± 3.5 % of max, the “In vivo membrane half-life” value (rabbit erythrocytes) was < 1 days and the “MRC# (at 24 hr.)” value [4] was 30 ± 4.7.

In the case of `CCCCCCCCCCCCCCCCCCCCCC[N+]1=C(C=CC=C2N(CCCCCCCCCCCC)c3ccccc3C2(C)C)C(C)(C)c2ccccc21` [P], the “MBS (% of max.)” value (membrane ghosts) is reported as 48 ± 3.1 % of max, the “In vivo membrane half-life” value (rabbit erythrocytes) is reported as 1.4 days and the “MRC# (at 24 hr.)” value [4] is reported as 65 ± 2.0.

For `CCCCCCCCCCCCCC[N+]1=C(C=CC=C2N(CCC)c3ccccc3C2(C)C)C(C)(C)c2ccccc21` [Q], the “MBS (% of max.)” value (membrane ghosts) was 41 ± 5.0 % of max, the MBS (membrane ghosts) was 42 ± 5.7% and the “In vivo membrane half-life” value (rabbit erythrocytes) was 10 ± 0.7 days. For the same compound, the “MRC# (at 24 hr.)” value [4] was 85 ± 0.6.

In the case of `CCCCCCCCCCCCCCCCN1C(=CC=CC2=[N+](CCCCCCCCCCCCCCCC)c3ccccc3C2(C)C)C(C)(C)c2ccccc21` [S], the “MBS (% of max.)” value (membrane ghosts) is reported as 79 ± 3.7 % of max, the “MRC# (at 24 hr.)” value [4] is reported as 87 ± 1.2 and the half-life [5] is reported as 58 days.

— patent US5667764A, “Compounds, compositions and methods for binding bio-affecting substances to surface membranes of bio-particles” (Zynaxis, Inc., priority 1992, dated 1997)
